# Test results published in patent publication US20110237497A1, “COMPOSITIONS OF A V-ATPASE INHIBITOR IN COMBINATION WITH A GLUCOCORTICOID RECEPTOR LIGAND AND METHODS OF USE” (priority 2009, published 2011).
# System: GR
# Test: GR transactivation, MMTV (pHHLuc) luciferase reporter in AD293 cells
# Assay type: cell-based
# Conditions: Dexamethasone 1 nM, 10 nM, 100 nM and 1 μM with or without Concanamycin A 1 nM, FIG. 2
# Method: AD293 cells in 24 wells plate were transfected with 0.1 ng GR, 100 ng pHHLuc reporter together with 10 ng Renilla control plasmids in each well, then induced by EtOH (vehicle control), Dexamethasone (1 nM, 10 nM, 100 nM and 1 μM), with or without Bafilomycin A1 (100 nM). Dual-Luciferase values were measured by Promega standard manual.
# AD293 cells in 24 wells plate were transfected with 0.1 ng GR, 100 ng pHHLuc reporter together with 10 ng Renilla control plasmids in each well, then induced by EtOH (vehicle control), Dexamethasone (1 nM, 10 nM, 100 nM and 1 μM), with or without Concanamycin A (1 nM). Dual-Luciferase values were measured by Promega standard manual.
# FIG. 8 is a graph showing a summary of V-ATPase inhibitors in enhancing GR-Dex activity on MMTV (pHHLuc) reporter in AD293 cells. AD293 cells in 24 wells plate were transfected with 0.1 ng GR, 100 ng pHHLuc reporter together with 10 ng Renilla control plasmids in each well, then induce by EtOH (vehicle control), Dexamethasone (10 nM), with different V-ATPase inhibitors (Bafilomycin A1 100 nM; Concanamycin A 1 nM; Lobatamide A 100 nM) or vehicle control. Dual-Luciferase values were measured by Promega standard manual.
smiles,measurement,value
"C/C=C/C1OC(O)(C(C)C(O)C(C)C2OC(=O)/C(OC)=C/C(C)=C/C(C)C(O)C(CC)C(O)C(C)C/C(C)=C/C=C/C2OC)CC(OC2CC(O)C(OC(N)=O)C(C)O2)C1C (stereo not shown) [Concanamycin A, 6-(2-(4-((4E,6E,14E,16Z)-11-ethyl-10,12-dihydroxy-3,17-dimethoxy-7,9,13,15-tetramethyl-18-oxooxacyclooctadeca-4,6,14,16-tetraen-2-yl)-3-hydroxypentan-2-yl)-2-hydroxy-5-methyl-6-((E)-prop-1-enyl)tetrahydro-2H-pyran-4-yloxy)-4-hydroxy-2-methyltetrahydro-2H-pyran-3-yl carbamate]",GR-dex dose-response of induction on MMTV (pHHLuc) reporter (GR transactivation),synergizes with Dex
